pIC50: −log10 of the molar value.
Molecular target: T1, LPA1 (Homo sapiens, UniProt Q92633)
T1 construct: ProLink (β-galactosidase enzyme-donor fragment); host or cells: CHO-K1 (PathHunter EDG2 β-Arrestin cell line)
Assay: LPA1 calcium flux assay (LPA1 functional antagonist assay)
Assay type: cell-based
Settings: PathHunter CHO-K1 EDG2 β-Arrestin cells, calcium indicator dye, stimulated with EC80 concentration of LPA, FLIPR
Protocol: The effectiveness of compounds of the present invention as LPA1 inhibitors can be determined in an LPA1 functional antagonist assay as follows.
PathHunter® CHO-K1 EDG2 β-Arrestin Cell Line (Eurofins DiscoverX Corporation, Cat #93-0644C2) were plated overnight (11,500 cells/well) in poly-D-lysine coated 384-well microplates (Corning, Cat #356697) in AssayComplete™ Cell Plating 35 Reagent (Eurofins DiscoverX Corporation, Cat #93-0563R35). Following overnight culture, cells were loaded with calcium indicator dye from the HitHunter Calcium No WashPLUS Assay kit (Eurofins DiscoverX Corporation, Cat #93-0091) for 45 minutes at 37° C. Test compounds solubilized in DMSO (Sigma, Cat #276855) on 384-well polypropylene microplates (Greiner bio-one, Cat #781280) were then diluted to intermediate concentration with assay buffer [1×HBSS calcium/magnesium (Corning, Cat #21-023-CM) and 20 mM HEPES (Corning, Cat #25-060-Cl)] before addition to cells by Agilent Velocity 11 with a final concentration of 0.4% DMSO. After compound addition, assay plates were equilibrated to room temperature for 30 minutes. Cells were then stimulated by addition of EC80 concentration of LPA (Cat #, 10010093) in assay buffer containing [1×HBSS calcium/magnesium (Corning, Cat #21-023-CM), 20 mM HEPES (Corning, Cat #25-060-Cl), and 0.1% BSA (Sigma, Cat #A8806)] using Molecular Devices FLIPR Tetra PLUS®. IC50 values were determined by Chemical and Biological Information System from ChemInnovation Software, Inc.
The compounds of this invention were tested for their activity to inhibit LPA1 as determined in an LPA1 functional antagonist assay as described herein.

T1 sequence (Q92633 whole entry, the tested form may be a part): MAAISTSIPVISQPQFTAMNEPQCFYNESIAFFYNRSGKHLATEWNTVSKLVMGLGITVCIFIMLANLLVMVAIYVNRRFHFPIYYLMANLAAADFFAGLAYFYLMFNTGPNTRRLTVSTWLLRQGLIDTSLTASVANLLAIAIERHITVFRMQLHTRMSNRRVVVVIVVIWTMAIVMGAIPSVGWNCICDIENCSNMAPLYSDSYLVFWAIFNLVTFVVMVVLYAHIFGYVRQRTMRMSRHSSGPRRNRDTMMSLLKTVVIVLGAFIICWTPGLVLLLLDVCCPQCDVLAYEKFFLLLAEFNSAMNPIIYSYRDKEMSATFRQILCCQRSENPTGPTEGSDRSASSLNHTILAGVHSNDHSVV

Row | pIC50 | Compound
1 | > 7.00 | Cc1nc(-c2nnn(C)c2COc2nccc(C3CCC3)n2)ccc1N1CCC(CC(=O)O)C1 (stereo not drawn) [Example 3, 2-(1-(6-(5-(((4-cyclobutylpyrimidin-2-yl)oxy)methyl)-1-methyl-1H-1,2,3-triazol-4-yl)-2-methylpyridin-3-yl)pyrrolidin-3-yl)acetic acid]
2 | 6.30 to 7.00 | CCCc1ccc(=O)n(Cc2c(-c3ccc(C4CN(CC(=O)O)CC(F)(F)C4)c(C)n3)nnn2C)c1 (single isomer, unassigned) [Example 41, (S) or (R)-2-(3,3-difluoro-5-(2-methyl-6-(1-methyl-5-((2-oxo-5-propylpyridin-1(2H)-yl)methyl)-1H-1,2,3-triazol-4-yl)pyridin-3-yl)piperidin-1-yl)acetic acid]
3 | > 7.00 | CCc1nc(-c2nnn(C)c2COc2nccc(C3CCC3)n2)ccc1[C@H]1CCC[C@@H](CC(=O)O)O1 (relative stereo) [Example 21, 2-(rel-(2S,6R)-6-(6-(5-(((4-cyclobutylpyrimidin-2-yl)oxy)methyl)-1-methyl-1H-1,2,3-triazol-4-yl)-2-ethylpyridin-3-yl)tetrahydro-2H-pyran-2-yl)acetic acid]
4 | 5.30 to 6.30 | CCCN(C)C(=O)OCc1c(-c2ccc(C3CCOC(CC(=O)O)C3)c(CC)n2)nnn1C (stereo not drawn) [Example 30, 2-(4-{2-ethyl-6-[1-methyl-5-({[methyl(propyl)carbamoyl]oxy}methyl)-1H-1,2,3-triazol-4-yl]pyridin-3-yl}oxan-2-yl)acetic acid]
5 | > 7.00 | Cc1nc(-c2nnn(C)c2COc2nccc(C3CCC3)n2)ccc1C1CCCC(CC(=O)O)C1 (stereo not drawn) [Example 39, 2-{3-[6-(5-{[(4-cyclobutylpyrimidin-2-yl)oxy]methyl}-1-methyl-1H-1,2,3-triazol-4-yl)-2-methylpyridin-3-yl]cyclohexyl}acetic acid]
6 | 6.30 to 7.00 | CCCc1ccc(=O)n(Cc2c(-c3ccc(C4CCCC(CC(=O)O)C4)c(C)n3)nnn2C)c1 (stereo not drawn) [Example 38, 2-[3-(2-methyl-6-{1-methyl-5-[(2-oxo-5-propyl-1,2-dihydropyridin-1-yl)methyl]-1H-1,2,3-triazol-4-yl}pyridin-3-yl)cyclohexyl]acetic acid]
7 | 5.30 to 6.30 | CCCc1ccc(=O)n(Cc2c(-c3ccc(C4COCC(CC(=O)O)C4)c(C)n3)nnn2C)c1 (stereo not drawn) [Example 29]
8 | 6.30 to 7.00 | Cc1nc(-c2nnn(C)c2COc2nccc(C3CCC3)n2)ccc1C1COCC(CC(=O)O)C1 (stereo not drawn) [Example 28, 2-{5-[6-(5-{[(4-cyclobutylpyrimidin-2-yl)oxy]methyl}-1-methyl-1H-1,2,3-triazol-4-yl)-2-methylpyridin-3-yl]oxan-3-yl}acetic acid]
9 | 6.30 to 7.00 | Cc1nc(-c2nnn(C)c2COc2nccc(C3CCC3)n2)ccc1N1CC[C@H](CC(=O)O)C1 [Example 5, (R)-2-(1-(6-(5-(((4-cyclobutylpyrimidin-2-yl)oxy)methyl)-1-methyl-1H-1,2,3-triazol-4-yl)-2-methylpyridin-3-yl)pyrrolidin-3-yl)acetic acid]
10 | > 7.00 | CCc1nc(-c2nnn(C)c2COc2nccc(C3CCC3)n2)ccc1[C@@H]1CCC[C@@H](CC(=O)O)O1 (single isomer, unassigned) [Example 22, 2-((2S,6S) or (2R,6R)-6-(6-(5-(((4-cyclobutylpyrimidin-2-yl)oxy)methyl)-1-methyl-1H-1,2,3-triazol-4-yl)-2-ethylpyridin-3-yl)tetrahydro-2H-pyran-2-yl)acetic acid]
11 | > 7.00 | CCc1nc(-c2nnn(C)c2Cn2cc(CC3CC3)ccc2=O)ccc1O[C@H]1CCC[C@H](C(=O)O)C1 [Example 44, (1S,3S)-3-((6-(5-((5-(cyclopropylmethyl)-2-oxopyridin-1(2H)-yl)methyl)-1-methyl-1H-1,2,3-triazol-4-yl)-2-ethylpyridin-3-yl)oxy)cyclohexanecarboxylic acid]
12 | 2.00 to 5.30 | CCCc1ccc(=O)n(Cc2c(-c3ccc(N4CC[C@@H](C(CC)C(=O)O)C4)c(CC)n3)nnn2C)c1 (single isomer, unassigned) [Example 18, (R) or (S)-2-((S)-1-(2-ethyl-6-(1-methyl-5-((2-oxo-5-propylpyridin-1(2H)-yl)methyl)-1H-1,2,3-triazol-4-yl)pyridin-3-yl)pyrrolidin-3-yl)butanoic acid]
13 | 5.30 to 6.30 | CCCc1ccc(=O)n(Cc2c(-c3ccc(N4CC[C@@H](C(CC)C(=O)O)C4)c(CC)n3)nnn2C)c1 (single isomer, unassigned) [Example 17, (S) or (R)-2-((S)-1-(2-ethyl-6-(1-methyl-5-((2-oxo-5-propylpyridin-1(2H)-yl)methyl)-1H-1,2,3-triazol-4-yl)pyridin-3-yl)pyrrolidin-3-yl)butanoic acid]
14 | > 7.00 | CCc1nc(-c2nnn(C)c2COc2nccc(C3CCC3)n2)ccc1C1CCOC(CC(=O)O)C1 (single isomer, unassigned) [Example 37, 2-(4-(6-(5-(((4-cyclobutylpyrimidin-2-yl)oxy)methyl)-1-methyl-1H-1,2,3-triazol-4-yl)-2-ethylpyridin-3-yl)tetrahydro-2H-2λ^3,4λ^3-pyran-2-yl)acetic acid]
15 | 2.00 to 5.30 | CCCN(C)C(=O)OCc1c(-c2ccc(N3CC[C@@H](C(CC)C(=O)O)C3)c(CC)n2)nnn1C (single isomer, unassigned) [Example 19, (S) or (R)-2-((S)-1-(2-ethyl-6-(1-methyl-5-(((methyl(propyl)carbamoyl)oxy)methyl)-1H-1,2,3-triazol-4-yl)pyridin-3-yl)pyrrolidin-3-yl)butanoic acid]
16 | 5.30 to 6.30 | CCCN(C)C(=O)OCc1c(-c2ccc(N3CC[C@@H](C(CC)C(=O)O)C3)c(CC)n2)nnn1C (single isomer, unassigned) [Example 20, (R) or (S)-2-((S)-1-(2-ethyl-6-(1-methyl-5-(((methyl(propyl)carbamoyl)oxy)methyl)-1H-1,2,3-triazol-4-yl)pyridin-3-yl)pyrrolidin-3-yl)butanoic acid]
17 | 6.30 to 7.00 | CCc1nc(-c2nnn(C)c2COc2nccc(C3CCC3)n2)ccc1[C@H]1CCC[C@H](CC(=O)O)O1 (single isomer, unassigned) [Example 23, 2-((2R,6R) or (2S,6S)-6-(6-(5-(((4-cyclobutylpyrimidin-2-yl)oxy)methyl)-1-methyl-1H-1,2,3-triazol-4-yl)-2-ethylpyridin-3-yl)tetrahydro-2H-pyran-2-yl)acetic acid]
18 | > 7.00 | CCc1nc(-c2nnn(C)c2COc2nccc(C3CCC3)n2)ccc1C1CCOC(CC(=O)O)C1 (single isomer, unassigned) [Example 34, 2-(4-(6-(5-(((4-cyclobutylpyrimidin-2-yl)oxy)methyl)-1-methyl-1H-1,2,3-triazol-4-yl)-2-ethylpyridin-3-yl)tetrahydro-2H-223,423-pyran-2-yl)acetic acid]
19 | > 7.00 | CCCc1ccc(=O)n(Cc2c(-c3ccc(N4CC[C@@H](C(C)(C)C(=O)O)C4)c(CC)n3)nnn2C)c1 [Example 14]
20 | 5.30 to 6.30 | CCCc1ccc(=O)n(Cc2c(-c3ccc(N4CC[C@@H]([C@@H](C)C(=O)O)C4)c(CC)n3)nnn2C)c1 [Example 12, (R)-2-((S)-1-(2-ethyl-6-(1-methyl-5-((2-oxo-5-propylpyridin-1(2H)-yl)methyl)-1H-1,2,3-triazol-4-yl)pyridin-3-yl)pyrrolidin-3-yl)propanoic acid]
21 | 5.30 to 6.30 | CCCN(C)C(=O)OCc1c(-c2ccc([C@@H]3CCC[C@@H](CC(=O)O)O3)c(CC)n2)nnn1C (single isomer, unassigned) [Example 25, 2-((2S,6S) or (2R,6R)-6-(2-ethyl-6-(1-methyl-5-(((methyl(propyl)carbamoyl)oxy)methyl)-1H-1,2,3-triazol-4-yl)pyridin-3-yl)tetrahydro-2H-pyran-2-yl)acetic acid]
22 | 6.30 to 7.00 | CCCc1ccc(=O)n(Cc2c(-c3ccc(N4CC[C@@H]([C@H](C)C(=O)O)C4)c(CC)n3)nnn2C)c1 [Example 13, (S)-2-((S)-1-(2-ethyl-6-(1-methyl-5-((2-oxo-5-propylpyridin-1(2H)-yl)methyl)-1H-1,2,3-triazol-4-yl)pyridin-3-yl)pyrrolidin-3-yl)propanoic acid]
23 | 6.30 to 7.00 | Cc1nc(-c2nnn(C)c2CN2CC(CC3CC3)N(C)C2=O)ccc1O[C@H]1CCC[C@H](C(=O)O)C1 (stereo partly drawn) [Example 42, (1S,3S)-3-((6-(5-((4-(cyclopropylmethyl)-3-methyl-2-oxoimidazolidin-1-yl)methyl)-1-methyl-1H-1,2,3-triazol-4-yl)-2-methylpyridin-3-yl)oxy)cyclohexane-1-carboxylic acid]
24 | 6.30 to 7.00 | CCc1nc(-c2nnn(C)c2COc2nccc(C3CCC3)n2)ccc1N1CC[C@H](CC(=O)O)C1 [Example 4, (R)-2-(1-(6-(5-(((4-cyclobutylpyrimidin-2-yl)oxy)methyl)-1-methyl-1H-1,2,3-triazol-4-yl)-2-ethylpyridin-3-yl)pyrrolidin-3-yl)acetic acid]

From patent US20250230140A1 (Viva Star Biosciences (Suzhou) Co., Ltd., priority 2021, published 2025)
